Experiments:
L1210 = test: Antileukemic activity in L1210 leukemic CD2F1 female mice (increase in life span); type: in vivo; settings: for ED50: Mus musculus, L1210 leukemic CD2F1 female mice, estimated by regression analysis, read-out: ED50 (dose producing 50% increase in life span of treated mice over control); for advantage over parent ifosfamide: racemic or enantiomeric compounds, versus ifosfamide, conclusion from Table 1
Method: (§1) Antileukemic activity against L1210, toxicity and therapeutic
Antileukemic activity was evaluated in L1210 leukemic CD2F1 female
mice ED50 doses producing the 50% increase in life span of treated
mice over control were estimated from experimental data by regression
(§2) anlysis. Toxicity (LD50) were determined in healthy CD2F1 femal

[1] = Toxicity (LD50) in healthy CD2F1 female mice, 14 days observation; settings: mouse, in vivo; for selectivity ratio: TI from LD50 (healthy CD2F1 mice) and ED50 (L1210 leukemic CD2F1 mice), read-out: Therapeutic index; for LD50 at 336 h: healthy CD2F1 female mice, 14 days observation period
Method: as §1, §2
mice during 14 days observation period. TI = LD50

## O=P1(NCCCl)OCCCN1CCCl (centres unmarked) [X=Cl, Y=Cl, 2-(2-chloroethylamino)-2-oxo-3-(2-chloroethyl)-1.3.2-oxazaphosphorinane, reference compound]
L1210
  ED50: 103 mg/kg
[1]
  selectivity ratio: 6.6
  LD50 at 336 h: 680 mg/kg

## O=P1(NCCBr)OCCCN1CCBr (centres unmarked) [X=Br, Y=Br, 2-(2-Bromoethylamino)-2-oxo-3-(2-bromoethyl)-1.3.2-oxazaphosphorinane]
L1210
  ED50: 43 mg/kg
  advantage over parent ifosfamide: more advantageous than parent ifosfamide
[1]
  selectivity ratio: 10.7
  LD50 at 336 h: 459 mg/kg

## O=P1(NCCCl)OCCCN1CCBr (centres unmarked) [X=Cl, Y=Br, 2-(2-Chloroethylamino)-2-oxo-3-(2-bromoethyl)-1.3.2-oxazaphosphorinane]
L1210
  ED50: 44 mg/kg
  advantage over parent ifosfamide: more advantageous than parent ifosfamide
[1]
  selectivity ratio: 11.6
  LD50 at 336 h: 512 mg/kg
